# Measured values reported in patent US20070197658A1, “Polyamines and their use as antibacterial and sensitizing agents” (priority 2006, published 2007).
# “And” between values parts separate entries of the source, which are not always exact repeats. Equal values may be shown once. Where a name gives a salt, the structure may show the parent alone. Read-outs that look alike come from different tables or passages of the source.
# Assays:
# E. coli ATCC 9637 [1] = test: microbe, parasite or virus in culture
# Method: (§1) An equal volume of a suspension of either E. coli ATCC 9637 (FIG. 6A) or S. aureus ATCC 13709 (FIG. 6B) in 2× Mueller-Hinton broth was added using an automated liquid dispensing system to a 384 well plate, and bacterial growth was measured by absorptimetry as described in Materials and Methods.
# (§2) In this example, E. coli strain 9637 and S. aureus strain 13709 were procured from ATCC (Manassas, Va.). For IM permeability assays, E. coli ML-35 (ATCC 43827), a lactose permease-deficient strain with constitutive cytoplasmic β-galactosidase activity was used (26). Calcium chloride transformation of E. coli ML-35 was performed using the plasmid vector pBR322 (6), encoding tetracycline and ampicillin resistance genes (Promega, Madison, Wis.). The transformed strain, E. coli ML-35p, selected by ampicillin resistance, was utilized for the OM permeabilization assay. E. coli ML-35p was maintained on trypticase soy agar plates with 50 μg/ml of ampicillin.
# (§3) Minimum inhibitory concentrations of the acylpolyamines were determined by broth microdilution method (1) as per NCCLS guidelines. Mid-log phase Mueller-Hinton broth (MHB; non-cation supplemented) cultures of organisms (40 μl; OD600nm adjusted to 0.5 AU, and diluted ten-fold) were added to equal volumes of two-fold serially diluted acylpolyamines in a 384-well microtiter plate with the help of a Biotek Precision 2000 automated microplate pipetting system. The MICs of rifampicin, polymyxin B (PMB), polymyxin B nonapeptide (PMBN), naphthylacetyl spermine trihydrochloride and methoctramine tetrahydrochloride (Sigma, St. Louis, Mo.) were included as reference compounds for comparison of activity. The microtiter plates were sealed and incubated overnight at 37° C. The plates were read at an absorbance of 600 nm. The lowest concentration of an agent inhibiting growth of the organisms was recorded as the MIC.
# S. aureus ATCC 13709 = test: microbe, parasite or virus in culture
# Method: as §1, §2, §3
# E. coli ATCC 9637 [2] = test: Effect of acylpolyamines on MIC of rifampicin (sensitization); format: cell-based, Escherichia coli; set-up: key to Sensitization to Rifampin: fold sensitization = MIC rifampicin alone / MIC with 10 μM compound; conditions: for Sensitization to Rifampin: E. coli strain 9637 preincubated with 10 μM of compound, MIC of rifampicin; for sensitization activity (MIC rifampicin alone / MIC rifampicin + 10 μM compound): E. coli ATCC 9637
# Method: E. coli ATCC 9637 was seeded in MH broth in chequerboard format in a 384-well plate containing a constant concentration of compound and varying doses of rifampicin. Bacterial growth was monitored by turbidimetry at 600 nm. PMBN and melittin were used as positive controls. Wells containing no test-compound served as negative control. […] Fold sensitization was calculated as MICRifampicin alone/MICRifampicin+10μM Compound.
# Perturbation of the outer membrane permeability barrier greatly sensitizes Gram negative organisms to otherwise impermeable hydrophobic solutes, rifampicin being a classic example To determine the effect of acylpolyamines on the MIC of hydrophobic antibiotic, rifampicin, E. coli strain 9637 was used. Overnight cultures of E. coli grown in MHB preincubated with 10 μM of acylpolyamines were added to serially diluted rifampicin in a 384-well microtiter plate. After incubation at 37° C. overnight, the MIC was determined. Controls included PMBN and melittin (positive) and rifampicin alone (negative). All experiments were run in triplicate.
# [3] = tested on: LPS-induced nitric oxide production in murine macrophages; test: NO inhibition, compound solubilized in DMSO or in HSA; format: cell-based, mouse; conditions: DMSO vs HSA solubilization (FIG. 7C)
# human serum albumin = human serum albumin (Homo sapiens, UniProt P02768); test: biochemical; conditions: KD for HSA, isothermal titration calorimetry; single-site model
# [4] = tested on: E. coli ML-35p (OM) / E. coli ML-35 (IM); format: cell-based, Escherichia coli; conditions: nitrocefin and ONPG hydrolysis
# Method: OM permeabilizing activity was determined using E. coli ML-35p (parent i^− z^+ y^− ATCC 43827 transformed with pBR322 vector encoding periplasmic β-lactamase); the leakage of periplasmic β-lactamase activity was quantified using nitrocefin as a chromogenic substrate. IM permeabilizing activity was determined using E. coli ML-35 using o-nitrophenyl-β-D-galactopyranoside as the substrate to determine the β-galactosidase activity. In all experiments, PMB, PMBN, and melittin were used as reference compounds.
# Nitrocefin (Calbiochem, San Diego, Calif.) was used for the determination of periplasmic β-lactamase activity since PADAC has been reported to be frequently insensitive to β-lactamase activity in clinically relevant strains of Staphylococcus. […] Harvested mid-log phase cultures of E. coli ML-35p (OD600nm adjusted to 0.5 AU) grown in trypticase soy broth were washed thrice with normal saline (0.9%). Nitrocefin was added to a final concentration of 50 μg/ml to the washed bacterial suspension, which was then added to the serially diluted compounds in a 384-well microtiter plate as described earlier. […] After various times of incubation at 37° C., β-lactamase activity was measured spectrophotometrically at 486 nm using an automated Spectramax M2 instrument (Molecular Devices, Sunnyvale, Calif.).
# The IM permeability was measured using o-nitrophenyl-β-D-galactopyranoside (“ONPG”; Sigma, St. Louis, Mo.) as the substrate to determine the β-galactosidase activity. […] Washed cultures of E coli ML-35 mixed with 1.5 mM of ONPG in normal saline (0.9%) were added to serially diluted compounds in a 384-well microtiter plate. PMBN and melittin were used as the controls. The production of o-nitrophenol was quantified absorptimetrically at 420 nm after an incubation period of 1 hour at 37° C.
# OM and IM permeability were determined respectively from dose-response curves of nitrocefin and ONPG hydrolysis rates as described in Lehrer et al., Concurrent assessment of inner and outer membrane permeabilization and bacteriolysis in E. coli by multiple-wavelength spectrophotometry, J. Immunol.
# CF-1 mice = conditions: preliminary
# Method: Detailed biophysical studies on the characterization of the binding site on albumin, stoichiometry, and dependence of binding affinity on mono-versus bis-acylation and acyl chain length will be published elsewhere.
# Clinical signs of acute toxicity were monitored for 48 h following a single injection. In subacute studies, 100 μg of 4e was injected daily in the subcutaneous tissue of the flank region, the sites being alternated every day, for a duration of 15 days. The animals were monitored daily for signs of local irritation, weight loss, and food consumption.
# [5] = 500 μM in 50 mM Tris buffer, pH 7.4, 5% DMSO, 25° C.
# Method: Charged, amphipathic molecules are surface-active, and can be cytolytic to mammalian cells. […] Samples were at 500 μM concentration in 50 mM Tris buffer, pH 7.4 containing 5% DMSO. The instrument was calibrated with water at 25° C. (72 mN/m) and surface tension values were recorded over a range of bubble surface ages from 100 to 1500 ms at 25° C.
# human whole blood = test: Hemolysis in fresh whole human blood (released hemoglobin, 570 nm); format: cell-based; conditions: fresh undiluted EDTA human blood, 37° C., 30 min
# Method: Melittin was used as a positive control.
# 1:233-245 (2004). Erythrocyte damage was measured using two different techniques. […] Biophys. Acta 1123:269-274 (1992).
# E. coli W3110 = conditions: cited from earlier work
# [6] = Staphylococcus aureus, ATCC13709
# [7] = E. coli ATCC 9637, Mueller-Hinton broth, overnight 37° C.
# [8] = S. aureus ATCC 13709, Mueller-Hinton broth, overnight 37° C.
# Method for human erythrocytes: Erythrocyte damage was measured using two different techniques. In the first, hemolysis was quantified using extremely diluted, aged human whole blood such that the effects of the compounds binding to plasma proteins would be negligible, and the hemolytic activity would be magnified because of increased osmotic fragility of the erythrocytes as a consequence of depleted Na^+ K^+ ATPase activity. […] Dilute erythrocyte suspensions were prepared by diluting one-week-old whole blood obtained by venipuncture from healthy human volunteers 1:1000 in isotonic (0.9 g/100 ml) saline solution to which was added graded doses of compound. […] The samples were therefore examined with a Beckman-Coulter Vi-Cell™ Cell Viability Analyzer (Beckman-Coulter, Hialeah, Fla.). This instrument implements an automated intravital trypan blue exclusion method using real-time automated video microscopy. Measurement parameters for erythrocytes were gated appropriately on control erythrocytes to specify thresholds of cell recognition and viability. Data on total number of cells/ml and viable cells/ml were collected through 50 captured images per sample with a counting accuracy of ±3%. In order to examine the effect of plasma proteins on the surface activity, some of the experiments were repeated in the presence of near-physiological concentrations of human serum albumin. […] The second method, consequently, was designed to examine the effects of the compounds on whole blood. […] After incubation at 37° C. for 30 min, the plates were centrifuged at 3000 RPM for 10 min, 80 μl of supernatants transferred to a fresh plate, and the amount of free hemoglobin released into the supernatant was quantified using absorptimetry at 570 nm.
# The hemolysis induced by the compounds was quantified using an extremely dilute suspension of washed, aged human erythrocytes under protein-free conditions (isotonic saline). […]
# Chain of human serum albumin (P02768 25-609): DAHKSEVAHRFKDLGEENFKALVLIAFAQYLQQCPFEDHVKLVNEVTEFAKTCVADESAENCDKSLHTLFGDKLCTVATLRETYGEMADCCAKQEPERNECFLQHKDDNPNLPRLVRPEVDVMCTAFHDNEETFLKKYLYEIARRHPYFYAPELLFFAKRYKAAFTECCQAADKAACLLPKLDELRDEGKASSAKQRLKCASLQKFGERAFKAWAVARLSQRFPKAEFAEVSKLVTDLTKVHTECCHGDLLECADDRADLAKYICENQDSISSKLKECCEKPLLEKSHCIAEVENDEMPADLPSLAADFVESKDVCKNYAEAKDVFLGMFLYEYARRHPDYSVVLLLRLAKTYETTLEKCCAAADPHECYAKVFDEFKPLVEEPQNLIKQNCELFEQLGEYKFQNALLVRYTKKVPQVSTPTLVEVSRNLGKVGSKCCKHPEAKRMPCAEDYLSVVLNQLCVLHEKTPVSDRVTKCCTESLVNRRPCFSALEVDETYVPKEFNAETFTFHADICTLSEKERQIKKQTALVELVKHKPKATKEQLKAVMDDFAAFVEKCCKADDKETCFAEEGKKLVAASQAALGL
smiles,measurement,setting,value
CCCCCCCCCCCCCCC(=O)NCCCNCCCNCCCCNCCCN [Compound 4e],MIC,"E. coli ATCC 9637 [1]; Escherichia coli, ATCC9637",31.2 µM and 29.3 µg/mL
same,MIC,S. aureus ATCC 13709; [6],15.6 µM and 14.6 µg/mL
same,Sensitization to Rifampin,E. coli ATCC 9637 [2],7.81
same,potency of NO inhibition solubilized in DMSO or in HSA,[3],identical potency
same,Kd,human serum albumin,1.98 µM and ~2 µM
CCCCCCCCCCCCCCCCC(=O)NCCCNCCCNCCCCNCCCN.O=C(O)C(F)(F)F.O=C(O)C(F)(F)F.O=C(O)C(F)(F)F.O=C(O)C(F)(F)F [Compound 4f],MIC,E. coli ATCC 9637 [1]; [7],62.5 μM and 60.4 μg/ml
same,MIC,S. aureus ATCC 13709; [8],15.6 μM and 15.1 μg/ml
same,Sensitization to Rifampin,E. coli ATCC 9637 [2],15.6
same,membrane-permeabilizing activity (OM and IM),[4],highly membrane-active
same,hemolysis,"human erythrocytes; at 1-5 μM, dilute aged human erythrocytes, protein-free isotonic saline",100%
same,hemolytic activity in the presence of human serum albumin,human erythrocytes; physiological concentrations (~650 μM) of human serum albumin,completely abrogated
CCCCCCCCC(=O)NCCCNCCCNCCCCNCCCNCCCNC(=O)CCCCCCCC.O=C(O)C(F)(F)F.O=C(O)C(F)(F)F.O=C(O)C(F)(F)F.O=C(O)C(F)(F)F [Compound 8a],MIC,E. coli ATCC 9637 [1]; [7],31.25 μM and 32.9 μg/ml
same,MIC,S. aureus ATCC 13709; [8],15.6 μM and 16.4 μg/ml
same,sensitization activity (MIC rifampicin alone / MIC rifampicin + 10 μM compound),E. coli ATCC 9637 [2],4096 fold
same,Sensitization to Rifampin,E. coli ATCC 9637 [2],0.00381
same,subacute toxicity,"CF-1 mice; 100 μg/mouse, subcutaneously, for 15 days",not revealed any detectable toxicity
same,acute toxicity,"CF-1 mice; up to 1 mg/mouse, one dose subcutaneously",not revealed any detectable toxicity
same,surface activity,[5],considerably surface active
CCCCCCCCCC(=O)NCCCNCCCNCCCCNCCCNCCCNC(=O)CCCCCCCCC.O=C(O)C(F)(F)F.O=C(O)C(F)(F)F.O=C(O)C(F)(F)F.O=C(O)C(F)(F)F [Compound 8b],MIC in the presence of human serum albumin,"E. coli ATCC 9637 [1]; E. coli, HSA 4.5 g/100 ml, 677 μM",125 µM
same,attenuation of MIC by human serum albumin,"E. coli ATCC 9637 [1]; E. coli, with vs without HSA 4.5 g/100 ml",four-fold
same,MIC in the presence of human serum albumin,"S. aureus ATCC 13709; S. aureus, HSA 4.5 g/100 ml, 677 μM",15.6 µM
same,attenuation of MIC by human serum albumin,"S. aureus ATCC 13709; S. aureus, with vs without HSA 4.5 g/100 ml",four-fold
same,sensitization activity (MIC rifampicin alone / MIC rifampicin + 10 μM compound),E. coli ATCC 9637 [2],4096 fold
same,Sensitization to Rifampin,E. coli ATCC 9637 [2],0.00381
same,surface activity,[5],considerably surface active
"CC[C@H](C)[C@H](NC(=O)CN)C(=O)NCC(=O)N[C@@H](C)C(=O)N[C@H](C(=O)N[C@@H](CC(C)C)C(=O)N[C@@H](CCCCN)C(=O)N[C@H](C(=O)N[C@@H](CC(C)C)C(=O)N[C@H](C(=O)N[C@H](C(=O)NCC(=O)N[C@@H](CC(C)C)C(=O)N1CCC[C@H]1C(=O)N[C@@H](C)C(=O)N[C@@H](CC(C)C)C(=O)N[C@H](C(=O)N[C@@H](CO)C(=O)N[C@@H](Cc1c[nH]c2ccccc12)C(=O)N[C@H](C(=O)N[C@@H](CCCCN)C(=O)N[C@@H](CCCNC(=N)N)C(=O)N[C@@H](CCCCN)C(=O)N[C@@H](CCCNC(=N)N)C(=O)N[C@@H](CCC(N)=O)C(=O)N[C@@H](CCC(N)=O)C(N)=O)[C@@H](C)CC)[C@@H](C)CC)[C@@H](C)O)[C@@H](C)O)C(C)C)C(C)C [Melittin, melittin, reference compound]",MIC,E. coli ATCC 9637 [1]; [7],175 μM and 498.1 μg/ml
same,MIC,S. aureus ATCC 13709; [8],5.5 μM and 15.6 μg/ml
same,hemolysis in human whole blood,human whole blood,caused hemolysis at low micromolar concentrations
same,membrane-permeabilizing activity (OM and IM),[4],potently membrane-permeabilizing
"COc1ccccc1CNCCCCCCNCCCCCCCCNCCCCCCNCc1ccccc1OC [Methoctramine, methoctramine tetrahydrochloride, reference compound]",MIC,E. coli ATCC 9637 [1]; [7],312.5 µM
same,MIC,"E. coli ATCC 9637 [1]; Escherichia coli, ATCC9637",312 µM and 228 µg/mL
same,MIC,S. aureus ATCC 13709; [6],156 µM and 114 µg/mL
same,MIC reported by Yasuda et al.,E. coli W3110,22 μM and 16 mg/l
"Cl.Cl.Cl.NCCCNCCCCNCCCNC(=O)Cc1cccc2ccccc12 [Naphthylacetylspermine, naphthylacetyl spermine trihydrochloride, reference compound]",MIC,"E. coli ATCC 9637 [1]; E. coli ATCC 9637, Mueller-Hinton broth, overnight 37° C., listed as naphthylacetylspermine, trihydrochloride",1250 µM
same,MIC,"E. coli ATCC 9637 [1]; E. coli ATCC 9637, Mueller-Hinton broth, overnight 37° C., trihydrochloride",1250 μM and 599.8 μg/ml
same,MIC,"S. aureus ATCC 13709; S. aureus ATCC 13709, Mueller-Hinton broth, overnight 37° C., trihydrochloride",1250 μM and 599.8 μg/ml
same,MIC reported by Yasuda et al.,E. coli W3110; trihydrochloride,> 267 μM and > 128 mg/l
